Common to all, as to format: cell-based, human
Experiment [1] relates to PMNs. As to the kind of experiment: PMN migration through fibrin gels in Boyden-type chemotaxis chambers. As to the method:
(§1) Becton-Dickinson cell culture inserts (pore sizes 3 or 8 μm: Franklin Lakes, N.J.) were overlaid with the following proteins:
Fibrin gels: 1 Unit of thrombin (a gift from Dr. John Fenton, Albany Medical College, Albany, N.Y.), in 5 μl of PBS was added first to each insert. 0.1 ml phosphate buffered saline supplemented with Ca^2+ and Mg^2+ (PBS) containing 100 μg commercial grade fibrinogen (Calbiochem. Inc., San Diego, Calif.) or purified fibrinogen [a gift from Dr. Jeffery Weitz, (MacMaster University, Hamilton, On.)] was then placed into each 8.2 mm diameter insert on top of the thrombin. The mixture was incubated at 37° C. for 5 min to allow fibrin gel formation (determined by visual inspection). 1 Unit PPACK (Calbiochem Inc., San Diego, Calif.; 10^−5 M final concentration), in 100 μl medium was added to each insert to inhibit thrombin, and gels were washed with 250 μl PBS to remove inactivated thrombin. The fibrin gels formed were about 1 mm thick as measured under a dissecting microscope.
(§2) PMNs were prepared from fresh heparinized blood from healthy adult volunteers by sedimentation on Ficoll-Hypaque gradients. Contaminating red blood cells were removed by hypotonic lysis, as described (7). The purity of PMN isolated by this method is >95% as determined by Wright-Giemsa staining (7). 10^6 PMNs in 250 μl of PBS supplemented with 5.5 mM glucose and 0.1% human serum albumin (PBSG-HSA), were placed in the upper compartment of each insert and incubated for 0-6 hrs at 37° C. in a humidified atmosphere containing 95% air/5% CO2. At the times and concentrations specified, chemoattractants/cytokines were added to the top or bottom compartment in 250 μl of PBSG-HSA. At the end of the incubation, the chambers were shaken to dislodge PMNs from the lower surface of the inserts. The medium in each lower compartment was collected and its content of PMNs was determined using either a Coulter Counter or a hemocytometer. Both methods gave similar results. Counts are expressed as the average number of PMNs that migrated into the lower compartment. Unless otherwise indicated, all values reported are the average of six data points from at least 3 independent experiments.

Experiment [2] deals with PMNs. As to the kind of experiment: PMN migration through plasma clots (plasma gels). The conditions noted are these: chemoattractant in lower compartment, 6 hrs. As to the method:
as §1
Clotted Plasma: Whole blood was collected and the cellular components were removed by centrifugation. The resulting plasma was mixed with an equal volume of PBS, and 100 μl of this mixture was placed into each insert containing thrombin and allowed to clot as described above. One unit of PPACK in 100 μl PBS then was added and the inserts were washed with 250 μl of PBS.
as §2, with “At the times and concentrations specified, chemoattractants/cytokines were added to the top or bottom compartment in 250 μl of PBSG-HSA. At the end of the incubation, the chambers were shaken to dislodge PMNs from the lower surface of the inserts.” left out, “Both methods gave similar results.” left out, “Unless otherwise indicated, all values reported are the average of six data points from at least 3 independent experiments.” left out

Experiment [3] has as its system PMNs. As to the kind of experiment: PMN migration through gels of Matrigel or collagen IV. To be noted: added to the bottom chamber. As to the method:
as §1
Collagen type IV and Matrigel matrices: 0.1 ml PBS containing 100 μg human placental collagen IV (Fluka Chemical Corp., Ronkonkoma, N.Y.), or 80 μg of reconstituted basement membrane proteins (Matrigel, Collaborative Research, Bedford, Mass.), was placed into each insert and allowed to gel at room temperature for 24 hrs.
as §2, with “At the end of the incubation, the chambers were shaken to dislodge PMNs from the lower surface of the inserts.” left out, “Both methods gave similar results.” left out, “Unless otherwise indicated, all values reported are the average of six data points from at least 3 independent experiments.” left out

The subject of experiment [4] is PMNs. In words: PMN migration through filters coated with fibrinogen or fibronectin. As to the method:
as §1
Fibrinogen or fibronectin: 0.1 ml of PBS containing 100 μg/ml fibrinogen or fibronectin (New York Blood Center, New York, N.Y.), was placed into each insert (pore size 3 μm). Inserts were incubated at 37° C. for 60 min and washed with 250 μl of PBS. Filters coated with fibrinogen or fibronectin were diffusely fluorescent as visualized by epifluorescent microscopy when incubated with the corresponding antibody [fluorescein-labeled anti-fibrinogen, or anti-fibronectin monoclonal antibodies (Cappel, Malvern, Pa.)], while uncoated filters, or filters incubated with fluorescein-labeled antibody of the opposite specificity, were not.
PMNs were prepared from fresh heparinized blood from healthy adult volunteers by sedimentation on Ficoll-Hypaque gradients. Contaminating red blood cells were removed by hypotonic lysis, as described (7). The purity of PMN isolated by this method is >95% as determined by Wright-Giemsa staining (7). […] The medium in each lower compartment was collected and its content of PMNs was determined using either a Coulter Counter or a hemocytometer. […] Counts are expressed as the average number of PMNs that migrated into the lower compartment. […]

Each structure is given as a SMILES string.

For the molecule `CCCCC/C=C\C[C@@H](O)/C=C/C=C/C=C\[C@@H](O)CCCC(=O)O` [LTB4, leukotriene B4], in the experiment on PMNs [1], the “More PMNs migrated through fibrin in response to LTB4 than to IL-8” value is 25-50%. In the experiment on PMNs [1] (IL-8 at >10^−7 M, supra-optimal LTB4), the “PMN migration through fibrin gels at supra-optimal concentrations” value is “no indication of PMN desensitization”. Moreover, in the experiment on PMNs [1] (chemoattractant in lower compartment, zymosan-activated human plasma 2-10%), the “PMN migration through fibrin gels (in words)” value is given as “migrated”. Moreover, in the experiment with PMNs [1] (chemoattractant in upper compartment, or equal concentrations in upper and lower compartments), the “PMN migration through fibrin gels without gradient” value is “Few PMNs migrated”. Moreover, in the experiment with PMNs [1] (in bottom compartment, 6 hrs), the “Concentration giving maximal PMN migration through fibrin gels” value worked out at 20 nM. For the same molecule, the “PMNs that migrated through fibrin gels within 2 hrs” value with PMNs [1] (optimal concentration, 2 hrs) is given as “Ten”. In the experiment with PMNs [2], the “PMN migration through plasma gels formed by thrombin treatment of human plasma” value is on record as “migrated”. Further, the “PMN migration through gels of Matrigel or collagen IV” value with PMNs [3] is on record as “stimulated PMN migration”. Further, the “PMN migration through filters with adsorbed fibrinogen or fibronectin” value with PMNs [4] was “promoted PMN migration”.

(Values after US20020114804A1, “A METHOD OF TREATING INFECTION OF SUTURES AND PROSTHETIC DEVICES” (priority 1996, published 2002).)
